{"source": "patent EP0347843A1", "about": "“Vitamine E composition improved in absorption” (Eisai Co., Ltd., priority 1988, dated 1989)", "assay": "physchem", "procedure": "It was here determined how much influence a mixture of oleic acid and lecithin would put on the solubility of d-alpha-tocopherol. It was determined with changing ratios of the oleic acid to the lecithine how to dissolve d-alpha-tocopherol in 20 mM solution of bile acid.", "note": "Read-outs that look alike come from different tables or passages of the source."}
{"compound": "Cc1c(C)c2c(c(C)c1O)CC[C@@](C)(CCC[C@H](C)CCC[C@H](C)CCCC(C)C)O2", "note": "[d-alpha-tocopherol]", "values": [{"measurement": "solubility", "value": "high solubility"}, {"measurement": "solubility", "setting": "20 mm bile acid solution", "value": 2000, "unit": "µg/mL"}]}
